US12698265B2, “Plant extracts enriched with ipolamiide derivatives as immunosuppressants for treating immunological disorders” (priority 2017, dated 2026)

Columns and labels:
[1] = system: IFNγ; assay: IFNγ production by αCD3/CD28-activated CD8+ T cells (Human IFNγ ELISA); type: cell-based; conditions: 3, 10 and 30 μM; human CD8+ T cells activated with αCD3/CD28; FIG. 2B
Protocol: (§1) FIG. 2—Effect of the aqueous extract of Stachytarpheta cayennensis (3, 10 and 30 μM, concentration expressed in ipolamiide) and isolated ipolamiide (3, 10 and 30 μM) on the proliferation of CD8+ T cells activated by αCD3/CD28 (A) and IFNγ production (B). The effect of the pool of compounds (IV to VIII) and the five novel isolated compounds (IV to VIII) generated after the acid hydrolysis of ipolamiide (30 μM) was also evaluated in the same experiments, proliferation of CD8+ T cells activated by αCD3/CD28 (C) and IFNγ production (D). Tacrolimus (0.5 μM) was used as the positive control for all experiments. The data are the mean±SD of three replicates.
(§2) The extract of Stachytarpheta cayennensis, ipolamiide and derivatives were studied in an experimental in vitro immunological model involving CD8+ T cells and IFNγ. […]
(§3) Peripheral blood mononuclear cells (PBMCs) from healthy volunteers were isolated from leukocyte layers by Ficoll-Hystopaque centrifugation. […] Specifically, it was evaluated the incorporation of BrdU through the Biotrak ELISA System (GE Healthcare, RPN250) per the manufacturer's instructions. The methodology for quantification of interferon gamma comprised the use of the Human IFNγ ELISA Ready-SET-Go kit (eBiosciences 88-7316-88) and followed the manufacturer's instructions. […]

[2] = system: CD8+ T cells activated by αCD3/CD28; assay: Proliferation of CD8+ T cells activated by αCD3/CD28 (BrdU incorporation, Biotrak ELISA); type: cell-based; conditions: 3, 10 and 30 μM (extract concentration expressed in ipolamiide); human CD8+ T cells from PBMCs; FIG. 2A
Protocol: as §1, §2, §3

With `COC(=O)C1=CO[C@@H](O[C@@H]2O[C@H](CO)[C@@H](O)[C@H](O)[C@H]2O)[C@@H]2[C@@](C)(O)CC[C@]12O` [ipolamiide] the “secretion of IFNγ” value [1] was “had no effect” and the “activation / proliferation of CD8+ T cells induced by αCD3/CD28” value [2] was “had no effect”.
